“Also recorded” adds a separate entry of the source. Like-named read-outs stand apart in the source and are kept apart here.
What was measured:
[1] = ATP pharmacokinetics: total blood (red blood cell) ATP level, Phase I study, 8 hour intravenous infusion; type: in vivo, human
Method: The solution was administered by continuous intravenous infusions using an Ivac or similar infusion device through venous access in a peripheral vein. If venous access was a problem, either a Hickman catheter or its equivalent, or an Infusaport or its equivalent was inserted to provide vascular access.
(§1) The 50 μg/kg/min dose could be reduced to 25 μg/kg/min if adverse effects occurred. […] Succeeding infusions in that patient were at the infusion dose tolerated at the end of the previous treatment. If adverse events occurred in patients being infused at 25 μg/kg/min, the infusions were terminated and the patient received no additional infusions.

[2] = Stability of ATP drug product and infusion solution; type: physicochemical
Method: An example of a clinical procedure in the treatment of individuals in need thereof is as follows. After determination of baseline, pre-treatment vital signs, hemodynamic variables and blood chemistry, an ATP dose escalation procedure is initiated. ATP is provided as a sterile solution in single use vials. […] Storage of the clinical solution is at controlled refrigerated temperature (2° C.-6° C.). […] The concentration of the final sterile solution for the infusion is 8 mg/ml.
See attached AAI International Analytical Testing Report Aug. 2, 2001.

[3] = Safety and tolerability (NCI CTC version 2 toxicity grades) of ATP infusion, Phase I study; type: in vivo, human
Method: Two of the seven evaluable patients had advanced prostate cancer with bone metastases and one each had advanced mesothelioma, metastatic breast cancer, metastatic melanoma, metastatic colon cancer and renal cell carcinoma.
as §1

[4] = cited from earlier work
[5] = Week 1 (infusion 1), 4 hours into infusion
[6] = Week 1 (infusion 1), 8 hours (before the end)
[7] = Week 1 (infusion 1), 8.25 hours
[8] = Week 1 (infusion 1), Time 0 (pre-infusion)
[9] = Week 3 (Infusion 3), 4 hours into infusion
[10] = Week 3 (Infusion 3), 8 hours before the end
[11] = Week 3 (Infusion 3), Time 0 (pre-infusion)
[12] = Week 8 (infusion 8), 4 hours into infusion
[13] = Week 8 (infusion 8), 8 hours (before the end)
[14] = Week 8 (infusion 8), Time 0 (pre-infusion)
[15] = ATP infusion rate 500-1000 μg/kg/min
[16] = ATP infusion rate ≦100 μg/kg/min

Nc1ncnc2c1ncn2[C@@H]1O[C@H](COP(=O)(O)OP(=O)(O)OP(=O)(O)O)[C@@H](O)[C@H]1O [ATP, adenosine 5′-triphosphate]
total blood (red blood cell) ATP levels ([1]; ATP continuously for eight hours): increases | ATP Level Mean [1, 5]: 0.808 mM | ATP Level Median [1, 5]: 0.745 mM | ATP Level Mean [1, 6]: 0.896 mM | ATP Level Median [1, 6]: 0.770 mM | ATP Level Mean [1, 7]: 0.860 mM | ATP Level Median [1, 7]: 0.860 mM | ATP Level Mean ([1]; Week 1 (infusion 1), 9 hours): 0.912 mM | ATP Level Median ([1]; Week 1 (infusion 1), 9 hours): 0.765 mM | ATP Level Mean ([1]; Week 1 (infusion 1), 10 hours): 0.826 mM | ATP Level Median ([1]; Week 1 (infusion 1), 10 hours): 0.735 mM | ATP Level Mean ([1]; Week 1 (infusion 1), 11 hours): 0.828 mM | ATP Level Median ([1]; Week 1 (infusion 1), 11 hours): 0.680 mM | ATP Level Mean ([1]; Week 1 (infusion 1), 12 hours): 0.845 mM | ATP Level Median ([1]; Week 1 (infusion 1), 12 hours): 0.690 mM | ATP Level Mean ([1]; Week 1 (infusion 1), 14 hours): 0.857 mM | ATP Level Median ([1]; Week 1 (infusion 1), 14 hours): 0.730 mM | ATP Level Mean ([1]; Week 1 (infusion 1), 16 hours): 0.905 mM | ATP Level Median ([1]; Week 1 (infusion 1), 16 hours): 0.755 mM | ATP Level Mean ([1]; Week 1 (infusion 1), 20 hours): 0.772 mM | ATP Level Median ([1]; Week 1 (infusion 1), 20 hours): 0.670 mM | ATP Level Mean ([1]; Week 1 (infusion 1), 24 hours): 0.715 mM | ATP Level Median ([1]; Week 1 (infusion 1), 24 hours): 0.620 mM | ATP Level Mean [1, 8]: 0.615 mM | ATP Level Median [1, 8]: 0.550 mM | ATP Level Mean ([1]; Week 1 (infusion 1), […]): 0.895 mM | ATP Level Median ([1]; Week 1 (infusion 1), […]): 0.810 mM | ATP Level Mean [1, 9]: 0.843 mM | ATP Level Median [1, 9]: 0.540 mM | ATP Level Mean [1, 10]: 0.955 mM | ATP Level Median [1, 10]: 0.770 mM | ATP Level Mean ([1]; Week 3 (Infusion 3), 9 hours): 0.908 mM | ATP Level Median ([1]; Week 3 (Infusion 3), 9 hours): 0.950 mM | ATP Level Mean ([1]; Week 3 (Infusion 3), 10 hours): 0.906 mM | ATP Level Median ([1]; Week 3 (Infusion 3), 10 hours): 1.000 mM | ATP Level Mean ([1]; Week 3 (Infusion 3), 11 hours): 0.885 mM | ATP Level Median ([1]; Week 3 (Infusion 3), 11 hours): 0.670 mM | ATP Level Mean ([1]; Week 3 (Infusion 3), 12 hours): 0.903 mM | ATP Level Median ([1]; Week 3 (Infusion 3), 12 hours): 0.820 mM | ATP Level Mean ([1]; Week 3 (Infusion 3), 14 hours): 0.853 mM | ATP Level Median ([1]; Week 3 (Infusion 3), 14 hours): 0.600 mM | ATP Level Mean ([1]; Week 3 (Infusion 3), 16 hours): 0.859 mM | ATP Level Median ([1]; Week 3 (Infusion 3), 16 hours): 0.740 mM | ATP Level Mean ([1]; Week 3 (Infusion 3), 20 hours): 0.851 mM | ATP Level Median ([1]; Week 3 (Infusion 3), 20 hours): 0.610 mM | ATP Level Mean ([1]; Week 3 (Infusion 3), 24 hours): 0.687 mM | ATP Level Median ([1]; Week 3 (Infusion 3), 24 hours): 0.580 mM | ATP Level Mean [1, 11]: 0.610 mM | ATP Level Median [1, 11]: 0.560 mM | ATP Level Mean ([1]; Week 3 (Infusion 3), […]): 0.989 mM | ATP Level Median ([1]; Week 3 (Infusion 3), […]): 0.960 mM | ATP Level Mean [1, 12]: 0.702 mM | ATP Level Median [1, 12]: 0.770 mM | ATP Level Mean [1, 13]: 0.826 mM | ATP Level Median [1, 13]: 0.890 mM | ATP Level Mean ([1]; Week 8 (infusion 8), 9 hours): 1.030 mM | ATP Level Median ([1]; Week 8 (infusion 8), 9 hours): 1.155 mM | ATP Level Mean ([1]; Week 8 (infusion 8), 10 hours): 0.963 mM | ATP Level Median ([1]; Week 8 (infusion 8), 10 hours): 1.080 mM | ATP Level Mean ([1]; Week 8 (infusion 8), 11 hours): 0.973 mM | ATP Level Median ([1]; Week 8 (infusion 8), 11 hours): 1.010 mM | ATP Level Mean ([1]; Week 8 (infusion 8), 12 hours): 0.925 mM | ATP Level Median ([1]; Week 8 (infusion 8), 12 hours): 1.050 mM | ATP Level Mean ([1]; Week 8 (infusion 8), 14 hours): 0.980 mM | ATP Level Median ([1]; Week 8 (infusion 8), 14 hours): 0.950 mM | ATP Level Mean ([1]; Week 8 (infusion 8), 16 hours): 0.894 mM | ATP Level Median ([1]; Week 8 (infusion 8), 16 hours): 0.700 mM | ATP Level Mean ([1]; Week 8 (infusion 8), 20 hours): 0.960 mM | ATP Level Median ([1]; Week 8 (infusion 8), 20 hours): 0.900 mM | ATP Level Mean ([1]; Week 8 (infusion 8), 24 hours): 0.708 mM | ATP Level Median ([1]; Week 8 (infusion 8), 24 hours): 0.750 mM | ATP Level Mean [1, 14]: 0.573 mM | ATP Level Median [1, 14]: 0.560 mM | ATP Level Mean ([1]; Week 8 (infusion 8), […]): 1.000 mM | ATP Level Median ([1]; Week 8 (infusion 8), […]): 0.980 mM | Increases in total blood ATP pools ([1]; patients 502-505, weeks 1, 3 and 8, time 0 to 8 hours (end of the infusions)): 70-90% | 3 month stability data ([2]; 3 months under routine storage conditions): remains stable at 3 months under | 15 months stability testing ([2]; refrigerated ATP (5° C.)): 99.7 % of label | stability of the final ATP solutions ([2]; room temperature, infusion solution 8 mg/ml): at least 96 hours | Lab. Toxicity ([3]; Patient 501): Nil noted | Clin. Toxicity and CTC-Grade ([3]; Patient 501, Ca Colon, 50 & 75 μg/kg/min, Weeks 1&2): I Flushing | Lab. Toxicity ([3]; Patient 502): Nil noted | Clin. Toxicity and CTC-Grade ([3]; Patient 502, Mesothelioma, 50, 75, & 100 μg/kg/min, Weeks 1-8): I Chest D/Dysp; also recorded: I Flushing; also recorded: I Anxiety | Lab. Toxicity: Hb decreased, Grade II ([3]; Patient 503): Hb 8.0 g/dl | Clin. Toxicity and CTC-Grade ([3]; Patient 503, Prostate, 50, 75, & 100 μg/kg/min, Weeks 1-8): II Confusion - | Lab. Toxicity ([3]; Patient 504): Nil noted | Lab. Toxicity ([3]; Patient 505): Nil noted | Clin. Toxicity and CTC-Grade ([3]; Patient 505, Melanoma, 50, 75 & 100 μg/kg/min, Weeks 1-8): I Flushing; also recorded: AVBlock/CHB | Lab. Toxicity: bilirubin and LFT's - disease progression ([3]; Patient 506): Increasing | Clin. Toxicity and CTC-Grade ([3]; Patient 506, Ca Colon, 50 & 75 & 100 μg/kg/min, Weeks 1-6): I Headache | Lab. Toxicity ([3]; Patient 507): Nil noted | Clin. Toxicity and CTC-Grade ([3]; Patient 507, Ca Prostate, 50, 75 & 100 μg/kg/min, Weeks 1-8): I Nasal stuffiness; also recorded: II increasing pain - | Lab. Toxicity ([3]; Patient 508, 50 μg/kg/min, Week 1): Nil noted | clinical toxicities ([3]; Patient 508, first infusion at 50 μg/kg/min): No clinical toxicities were noted | Clin. Toxicity and CTC-Grade ([3]; Patient 509, Renal cell carcinoma, 50, 75 & 100 μg/kg/min, Weeks 1-8): I anxiety; also recorded: I nausea; also recorded: I vomiting | Lab. Toxicity: AST/Alk Phos increase ([3]; Patient 509, at FU): At FU grade I | patients tolerating the maximum allowable dose of 100 μg/kg/min ([3]; continuous 8 hour intravenous infusion, first nine patients): seven of nine | tolerability in terminal patients ([3]; seen in patient 506): well tolerated | Cardiac Output [4, 15]: Increase | Heart Rate [4, 15]: Increase | Pulmonary Arterial Pressure [4, 15]: Decrease | Pulmonary Vascular Resistance [4, 15]: Decrease | Systemic Arterial Pressure [4, 15]: Decrease | Systemic Vascular Resistance [4, 15]: Decrease | Cardiac Output [4, 16]: Small Increase | Heart Rate [4, 16]: do not affect; also recorded: No Change | Pulmonary Arterial Pressure [4, 16]: No Change | Pulmonary Vascular Resistance [4, 16]: Decrease | Systemic Arterial Pressure [4, 16]: do not affect; also recorded: No Change | Systemic Vascular Resistance [4, 16]: Small Decrease

Reference: patent US20070203091A1, “Methods and therapeutic compositions for improving liver, blood flow and skeletal muscle functions in advanced diseases and aging” (priority 2006, published 2007)
